According to patent US20250144067A1, “PERSONALIZED STARVATION THERAPY FOR CANCER” (Faeth Therapeutics, Inc., priority 2021, published 2025):
Where a name gives a salt, the structure may show the parent alone. Read-outs that look alike come from different tables or passages of the source.

Tests used:
[1] = tested on: NCI-H292 lung cancer cells; test: FDA drug screening, complete media vs cholesterol-free media without statin (TABLE 1); assay type: cell-based, human
[2] = tested on: NCI-H292 lung cancer cells; test: FDA drug screening, complete media vs cholesterol-free media with simvastatin (TABLE 2); assay type: cell-based, human
[3] = NCI-H292 cells, cholesterol-free media without statin, FDA drug library screen
[4] = NCI-H292 cells, complete media, FDA drug library screen
[5] = complete vs cholesterol-free media, >0 enhanced anti-cancer activity, about 0 neutral, <0 antagonist
[6] = NCI-H292 cells, cholesterol-free media with simvastatin 0.04 μM, FDA drug library screen (TABLE 2)
[7] = NCI-H292 cells, complete media, FDA drug library screen (TABLE 2)
[8] = complete media minus cholesterol-free media + simvastatin (0.04 μM), >0 enhanced anti-cancer activity, about 0 neutral, <0 antagonist
[9] = Complete minus Cholesterol-free, greater than 0 enhanced anti-cancer activity, about 0 neutral, below 0 antagonist
[10] = NCI-H292 cells, FDA drug library screen, cholesterol-free media without statin
[11] = NCI-H292 cells, FDA drug library screen, complete media
[12] = complete media vs cholesterol-free media + simvastatin (0.04 μM), >0 enhanced anti-cancer activity, about 0 neutral, <0 antagonist
[13] = NCI-H292 cells, FDA drug library screen, cholesterol-free media with simvastatin 0.04 μM
[14] = Complete minus Cholesterol-free, […]
[15] = complete media vs cholesterol-free media + simvastatin (0.04 μM), […]
[16] = Complete minus Cholesterol-free, greater than 0 enhanced anti-cancer activity, about 0 neutral, below 0 antagonists
[17] = NCI-H292 cells in cholesterol-free media without statin
[18] = NCI-H292 cells in complete media
[19] = NCI-H292 cells, FDA library drug in cholesterol-free media with simvastatin 0.04 μM
[20] = NCI-H292 cells, FDA library drug in complete media
[21] = NCI-H292 cells, cholesterol-free media without statin

**Q.** What does the source list for `C[N+]12CCC(CC1)C(OC(=O)C(O)(c1ccccc1)c1ccccc1)C2.[Br-]` (stereo not drawn) [Clidinium (bromide)]?
**A.** Cholesterol-free [1]: 1.17; Complete [1]: 1.604; Difference [1]: 0.43; Cholesterol-free media + simvastatin (0.04 μM) [2]: 1.456; Complete Media [2]: 1.482; Difference [2]: 0.03

**Q.** Which Cholesterol-free [1, 3] does the source give for `CCc1nc(C(N)=O)c(Nc2ccc(N3CCC(N4CCN(C)CC4)CC3)c(OC)c2)nc1NC1CCOCC1` [Gilteritinib] here?
**A.** The Cholesterol-free was 0.2961.

**Q.** What about the Complete [1, 4] of the same compound?
**A.** The Complete was 0.7497.

**Q.** And the Difference [1, 5]?
**A.** The Difference was 0.45.

**Q.** And the “Cholesterol-free media + simvastatin (0.04 μM)” value [2, 6]?
**A.** Its value is 0.4196.

**Q.** What about the “Complete Media” value [2, 7] of the same compound?
**A.** Its value is 0.3685.

**Q.** And the Difference [2, 8]?
**A.** The Difference was −0.05.

**Q.** With `CCCCN(CCCC)C(=O)CN1C[C@H](c2ccc3c(c2)OCO3)[C@@H](C(=O)O)[C@@H]1c1ccc(OC)cc1` [Atrasentan (hydrochloride)] as the compound, how does the Difference [1, 9] read?
**A.** The Difference was −0.17.

**Q.** And the Cholesterol-free [1, 10]?
**A.** Its Cholesterol-free is 1.198.

**Q.** What about the Complete [1, 11] of the same compound?
**A.** The Complete was 1.025.

**Q.** And the “Cholesterol-free media + simvastatin (0.04 μM)” value ([2]; NCI-H292 cells, drug in cholesterol-free media with simvastatin 0.04 μM)?
**A.** Its value is 1.092.

**Q.** And the “Complete Media” value ([2]; NCI-H292 cells, drug in complete media)?
**A.** Its value is 0.8532.

**Q.** What about the Difference [2, 12] of the same compound?
**A.** The Difference was −0.24.

**Q.** Which results are given for Imatinib (Mesylate)?
**A.** Cholesterol-free [1, 3]: 0.5677; Complete [1, 4]: 1.017; Difference [1, 5]: 0.45; Cholesterol-free media + simvastatin (0.04 μM) [2, 13]: 1.089; Complete Media [2, 11]: 0.9411; Difference [2, 12]: −0.15

**Q.** `C[C@H](Oc1cc(-c2cnn(C3CCNCC3)c2)cnc1N)c1c(Cl)ccc(F)c1Cl` [(S)-Crizotinib] was tested. Which Difference [1, 14] did it give?
**A.** Its Difference is 0.02.

**Q.** And the Cholesterol-free [1, 3]?
**A.** Its Cholesterol-free is 1.253.

**Q.** What about the Complete [1, 4] of the same compound?
**A.** Its Complete is 1.275.

**Q.** And the “Cholesterol-free media + simvastatin (0.04 μM)” value [2, 13]?
**A.** Its value is 1.094.

**Q.** What about the “Complete Media” value [2, 11] of the same compound?
**A.** The value was 0.9518.

**Q.** What about the Difference [2, 15] of the same compound?
**A.** The Difference was −0.14.

**Q.** Which results are given for `CCN(CC)C(=O)c1cccnc1` [Nikethamide]?
**A.** Difference [1, 9]: −0.18; Cholesterol-free [1, 10]: 1.071; Complete [1, 11]: 0.8953; Cholesterol-free media + simvastatin (0.04 μM) [2, 13]: −0.004932; Complete Media [2, 11]: 1.43; Difference ([2]; complete media minus cholesterol-free media + simvastatin, >0 enhanced anti-cancer activity, about 0 neutral, <0 antagonist): 1.44

**Q.** For `O=C(O)CCCCCCCC(=O)O` [Azelaic acid], which Difference [1, 16] is on record?
**A.** Its Difference is −0.60.

**Q.** And the Cholesterol-free [1, 17]?
**A.** Its Cholesterol-free is 1.702.

**Q.** And the Complete [1, 18]?
**A.** The Complete was 1.104.

**Q.** What about the “Cholesterol-free media + simvastatin (0.04 μM)” value [2, 19] of the same compound?
**A.** Its value is 1.245.

**Q.** And the “Complete Media” value [2, 20]?
**A.** Its value is 0.8813.

**Q.** What about the Difference [2, 12] of the same compound?
**A.** The Difference was −0.36.

**Q.** How did the Difference [1, 16] turn out when `C[C@H](Nc1ncnc2nc[nH]c12)c1cc2cccc(Cl)c2c(=O)n1-c1ccccc1` [Duvelisib] was run?
**A.** The Difference was −0.51.

**Q.** And the Cholesterol-free [1, 17]?
**A.** Its Cholesterol-free is 1.444.

**Q.** What about the Complete [1, 18] of the same compound?
**A.** The Complete was 0.9349.

**Q.** And the “Cholesterol-free media + simvastatin (0.04 μM)” value [2, 19]?
**A.** Its value is 1.228.

**Q.** And the “Complete Media” value [2, 20]?
**A.** Its value is 0.8817.

**Q.** And the Difference [2, 12]?
**A.** The Difference was −0.35.

**Q.** Which Difference [1, 16] does the source give for `CO[C@@]1(NC(=O)C(C(=O)O)c2ccc(O)cc2)C(=O)N2C(C(=O)O)=C(CSc3nnnn3C)CO[C@@H]21` (stereo partly drawn) [Moxalactam (sodium salt)] here?
**A.** Its Difference is −0.79.

**Q.** And the Cholesterol-free [1, 17]?
**A.** Its Cholesterol-free is 1.849.

**Q.** What about the Complete [1, 18] of the same compound?
**A.** Its Complete is 1.058.

**Q.** And the “Cholesterol-free media + simvastatin (0.04 μM)” value [2, 19]?
**A.** Its value is 1.994.

**Q.** And the “Complete Media” value [2, 20]?
**A.** Its value is 1.097.

**Q.** And the Difference [2, 12]?
**A.** The Difference was −0.90.

**Q.** What does the source list for `CC(=O)O[C@]1(C(C)=O)CC[C@H]2[C@@H]3CCC4=CC(=O)CCC4=C3[C@@H](c3ccc(N(C)C)cc3)C[C@@]21C` [Ulipristal acetate]?
**A.** Cholesterol-free [1, 21]: 1.13; Complete ([1]; NCI-H292 cells, complete media): 0.8186; Difference ([1]; complete vs cholesterol-free media, greater than 0 enhanced anti-cancer activity, about 0 neutral, below 0 antagonists): −0.31; Cholesterol-free media + simvastatin (0.04 μM) [2, 6]: 0.6984; Complete Media [2, 7]: 0.695; Difference [2, 8]: 0.00

**Q.** How did the Cholesterol-free [1] turn out when `CN(C)C(=O)C(CCN1CCC(O)(c2ccc(Cl)cc2)CC1)(c1ccccc1)c1ccccc1` [Loperamide (hydrochloride)] was run?
**A.** Its Cholesterol-free is 1.105.

**Q.** What about the Complete [1] of the same compound?
**A.** Its Complete is 0.9631.

**Q.** And the Difference [1]?
**A.** Its Difference is −0.14.

**Q.** What about the “Cholesterol-free media + simvastatin (0.04 μM)” value [2] of the same compound?
**A.** The value was 1.197.

**Q.** And the “Complete Media” value [2]?
**A.** Its value is 0.9577.

**Q.** What about the Difference [2] of the same compound?
**A.** The Difference was −0.24.

**Q.** What does the source list for `C=Cc1c(C)c2cc3nc(c(CC(=O)N[C@@H](CC(=O)O)C(=O)O)c4[nH]c(cc5nc(cc1[nH]2)C(C)=C5CC)c(C)c4C(=O)O)[C@@H](CCC(=O)O)[C@@H]3C` [Talaporfin (sodium)]?
**A.** Difference ([1]; Complete minus Cholesterol-free, >0 enhanced anti-cancer activity, about 0 neutral, <0 antagonist): −0.29; Cholesterol-free [1, 21]: 1.22; Complete ([1]; NCI-H292 cells, complete media): 0.9319; Cholesterol-free media + simvastatin (0.04 μM) [2, 13]: 1.087; Complete Media [2, 11]: 0.9459; Difference [2, 12]: −0.14

**Q.** With `C#C[C@]1(O)C=C[C@H]2[C@@H]3CCC4=CC(=O)CC[C@@H]4[C@H]3CC[C@@]21CC` [Gestodene] as the compound, how does the Difference [1, 9] read?
**A.** Its Difference is −0.11.

**Q.** What about the Cholesterol-free [1, 10] of the same compound?
**A.** The Cholesterol-free was 1.134.

**Q.** What about the Complete [1, 11] of the same compound?
**A.** Its Complete is 1.023.

**Q.** And the “Cholesterol-free media + simvastatin (0.04 μM)” value [2, 19]?
**A.** The value was 1.543.

**Q.** What about the “Complete Media” value [2, 20] of the same compound?
**A.** Its value is 1.003.

**Q.** What about the Difference [2, 12] of the same compound?
**A.** The Difference was −0.54.

**Q.** Which Difference [1, 14] does the source give for `CC(O)C(=O)O.CCOc1ccc2nc3cc(N)ccc3c(N)c2c1` [Ethacridine (lactate)] here?
**A.** The Difference was −0.28.

**Q.** And the Cholesterol-free [1, 21]?
**A.** The Cholesterol-free was 0.3206.

**Q.** What about the Complete ([1]; NCI-H292 cells, complete media) of the same compound?
**A.** The Complete was 0.04483.

**Q.** What about the “Cholesterol-free media + simvastatin (0.04 μM)” value [2, 13] of the same compound?
**A.** The value was 0.2653.

**Q.** And the “Complete Media” value [2, 11]?
**A.** The value was 0.1668.

**Q.** What about the Difference [2, 15] of the same compound?
**A.** Its Difference is −0.10.
